# Columns and labels:
# [1] = test system: TDP-43 aggregation; assay: TDP-43 aggregation assay in SY5Y TDP-43WT cells (high content imaging); type: cell-based; settings: Homo sapiens, tetracycline induction 24 hrs, 1 hour compound pre-treatment, sodium arsenite 23 hrs, 8-point dose curve, percentage of cells with TDP-43 aggregates, read-out: IC50, Inhibition of TDP-43 Aggregation
# How it was run: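 Tetracycline-inducible eGFP-tagged wild-type human TDP-43 in SH-SY5Y cells, induced 24 h ([…]), compound pre-treated 1 h, then sodium arsenite […] for 23 h. Fixed cells imaged; percentage of DAPI-counted cells with aggregates gives IC50 from 8-point curves.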
# [2] = test system: tau stress granules; assay: SY5Y-tT1 tau arsenite assay (tau stress granules per cell); type: cell-based; settings: SY5Y-tT1 cells, 2 hours compound, 90 minutes arsenite, 50% reduction of granules per cell, read-out: IC50, Inhibitor Activity of Tau Stress Granules
# Method: Example 91: In Vitro Efficacy Assay of Exemplary Compounds—SY5Y-tT1 Tau Arsenite/Thapsigargin Assay
# • Before harvesting cells—checked to see if cells are ~80% confluency in their flask • 1. Aspirated growth media from flask. • 2. Added 4 mL of (0.25%) trypsin-EDTA (REF: 25200-056) • 3. Placed in 37° C. incubator for 5 minutes. • 4. Removed from incubator and added 11 mL growth media, washing any remaining cells adhered to the bottom of the flask. • 5. Transferred cell containing media to a 50 mL conical tube and spun for 5 minutes at 800 rpm. • 6. Aspirated supernatant and added 5 mL of growth media to cell pellet, triturating to make a homogenous cell solution. • 7. After counting cells, followed one of these plating paradigms: • (A) If treating with arsenite, plated cells at […] with tetracycline solution (5 mg/mL) added to cell solution at 1:5000 • (B) If treating with thapsigargin, plated cells at 4,000 cells/well with tetracycline solution (5 mg/mL) added to cell solution at 1:5000 • 8. Incubated at 37° C. for 48 hours.
# • Solubilized all compounds to 10 mM prior to making dilution plates • 1. To a 96-well U-bottom plate (Falcon Non-Tissue Culture Treated Plates REF: 351177) added 120 μL growth media to all 96 wells, with an additional 58.2 μL to row A. • 2. Added 1.8 μL of 10 mM compound stock to wells A1-11, adding 1.8 μL of 10 mM PERKi stock (Selleck Chemistry GSK2606414 Cat No. S7307) as the control. • 3. Serially diluted 60 μL from row A down through each row, finishing with 180 μL total volume in row H. • 4. Transferred 12.5 μL of each dilution plate well to the correlating wells in cell plate, being careful not to touch cells adhered to bottom of the plate. • 5. Incubated for 2 hours.
# • 1. Added 720 μL of 0.05 M sodium arsenite solution (CAS #: 7784-46-5) to 10 mL of growth media for a final concentration of […] arsenite solution, mix well. • 2. Added 12.5 μL of arsenite solution to all wells of compounds treated plate intended for arsenite treatment. • 3. Incubated at 37° C. for 90 minutes.
# • Before beginning this part of the protocol: • Made 1×PBS by diluting 10× stock (10×, Phosphate buffered saline, Fisher #BP399— • 4) in sterile deionized water. • Diluted paraformaldehyde (16% Paraformaldehyde solution, Electron Microscopy Sciences #15710-S) to 4% in 1×PBS. • Diluted Hoechst stain (Life Technologies #H3570) 1:10,000 in 1×PBS (1 μL Hoechst per 10 mL 1×PBS). • Both solutions were protected from light. • 1) After compound treatment, aspirated media from cell plates and gently added in 50 μL of 4% paraformaldehyde for 10 min protected from light at room temperature. • 2) Aspirated paraformaldehyde solution and gently added 50 μL of 1:10,000 Hoechst solution to each well and incubated for 10 min protected from light at room temperature. • 3) Aspirated Hoechst solution and gently added 100 μL 1×PBS. Cover the plate with aluminum film (VWR #60941-126). • 4) Stored at 4° C. or used immediately for imaging on ThermoFisher CX7 imager.
# Exemplary compounds of the disclosed herein were evaluated for efficacy for inhibitor activity of tau stress granules in the arsenite assay and quantified as drug concentration providing a 50% reduction (IC50) of granules per cell is shown in Table 4.
# In Table 4 below, A indicates an IC50 (μM)<0.5 μM, B indicates an IC50 (μM) 0.5 μM to <1 μM, C indicates an IC50 (μM) 1 μM to <2 μM, and D indicates an IC50 (μM) 2 μM to <6 μM.
IC50 [1] [µM],IC50 [2] [µM],SMILES
< 0.5,< 0.5,"Cc1cc(-c2ccc(C3CCN(C)CC3)c(F)c2)sc1C(=O)N1CC[C@H](N)C1 [Compound 136, (S)-(3-aminopyrrolidin-1-yl)(5-(3-fluoro-4-(1-methylpiperidin-4-yl)phenyl)-3-methylthiophen-2-yl)methanone]"
< 0.5,0.5 to 1,"Cc1cc(-c2ccc(C3CCN(CC4CCCOC4)CC3)cc2)sc1C(=O)N1CC[C@H](N)C1 (stereo partly drawn) [Compound 139, ((S)-3-aminopyrrolidin-1-yl)(3-methyl-5-(4-(1-((tetrahydro-2H-pyran-3-yl)methyl)piperidin-4-yl)phenyl)thiophen-2-yl)methanone]"
< 0.5,0.5 to 1,"COCCCN1CCC(c2ccc(-c3cc(C)c(C(=O)N4CC[C@H](N)C4)s3)cc2)CC1 [Compound 141, (S)-(3-aminopyrrolidin-1-yl)(5-(4-(1-(3-methoxypropyl)piperidin-4-yl)phenyl)-3-methylthiophen-2-yl)methanone]"
< 0.5,0.5 to 1,"COCCN1CCC(c2ccc(-c3cc(C)c(C(=O)N4CC[C@H](N)C4)s3)cc2)CC1 [Compound 142, (S)-(3-aminopyrrolidin-1-yl)(5-(4-(1-(2-methoxyethyl)piperidin-4-yl)phenyl)-3-methylthiophen-2-yl)methanone]"
–,1 to 2,"Cc1cc(-c2ccc(N3CCN(C4CCOC4)CC3)cc2)sc1C(=O)N1CC[C@H](N)C1 (stereo partly drawn) [Compound 152, ((S)-3-aminopyrrolidin-1-yl)(3-methyl-5-(4-(4-(tetrahydrofuran-3-yl)piperazin-1-yl)phenyl)thiophen-2-yl)methanone]"
–,1 to 2,"Cc1cc(-c2ccc(N3CCN(C4CCCC4)CC3)cc2)sc1C(=O)N1CC[C@H](N)C1 [Compound 153, (S)-(3-aminopyrrolidin-1-yl)(5-(4-(4-cyclopentylpiperazin-1-yl)phenyl)-3-methylthiophen-2-yl)methanone]"
< 0.5,0.5 to 1,"CCN1CCN(c2ccc(-c3cc(C)c(C(=O)N4CC[C@H](N)C4)s3)cc2)CC1 [Compound 155, (S)-(3-aminopyrrolidin-1-yl)(5-(4-(4-ethylpiperazin-1-yl)phenyl)-3-methylthiophen-2-yl)methanone]"
< 0.5,< 0.5,"Cc1cc(-c2ccc(C3CCN(C4CCS(=O)(=O)CC4)CC3)cc2)sc1C(=O)N1CC[C@H](N)C1 [Compound 156, (S)-(3-aminopyrrolidin-1-yl)(5-(4-(1-(1,1-dioxidotetrahydro-2H-thiopyran-4-yl)piperidin-4-yl)phenyl)-3-methylthiophen-2-yl)methanone]"
–,1 to 2,"Cc1cc(-c2ccc(N3CCN(C4CCC4)CC3)cc2)sc1C(=O)N1CC[C@H](N)C1 [Compound 158, (S)-(3-aminopyrrolidin-1-yl)(5-(4-(4-cyclobutylpiperazin-1-yl)phenyl)-3-methylthiophen-2-yl)methanone]"
–,0.5 to 1,"Cc1cc(-c2ccc(N3CCN(C(C)C)CC3)cc2)sc1C(=O)N1CC[C@H](N)C1 [Compound 159, (S)-(3-aminopyrrolidin-1-yl)(5-(4-(4-isopropylpiperazin-1-yl)phenyl)-3-methylthiophen-2-yl)methanone]"
–,1 to 2,"Cc1cc(-c2ccc(N3CCNCC3)cc2)sc1C(=O)N1CC[C@H](N)C1 [Compound 162, (S)-(3-aminopyrrolidin-1-yl)(3-methyl-5-(4-(piperazin-1-yl)phenyl)thiophen-2-yl)methanone]"
–,< 0.5,"Cc1cc(-c2ccc(C3CCN(C4COC4)CC3)cc2)sc1C(=O)N1CC[C@H](N)C1 [Compound 164, (S)-(3-aminopyrrolidin-1-yl)(3-methyl-5-(4-(1-(oxetan-3-yl)piperidin-4-yl)phenyl)thiophen-2-yl)methanone]"
–,0.5 to 1,"Cc1cc(-c2ccc3c(c2)CCOC3)sc1C(=O)N1CC[C@H](N)C1 [Compound 165, (S)-(3-aminopyrrolidin-1-yl)(5-(isochroman-6-yl)-3-methylthiophen-2-yl)methanone]"
–,< 0.5,"Cc1cc(-c2ccc(C3(N(C)C)CCOCC3)cc2)sc1C(=O)N1CC[C@H](N)C1 [Compound 166, (S)-(3-aminopyrrolidin-1-yl)(5-(4-(4-(dimethylamino)tetrahydro-2H-pyran-4-yl)phenyl)-3-methylthiophen-2-yl)methanone]"
–,1 to 2,"Cc1cc(-c2ccc(C3CCN(C4CCSCC4)CC3)cc2)sc1C(=O)N1CC[C@H](N)C1 [Compound 167, (S)-(3-aminopyrrolidin-1-yl)(3-methyl-5-(4-(1-(tetrahydro-2H-thiopyran-4-yl)piperidin-4-yl)phenyl)thiophen-2-yl)methanone]"
< 0.5,0.5 to 1,"CCN1CCC(c2ccc(-c3cc(C)c(C(=O)N4CC[C@H](N)C4)s3)cc2)CC1 [Compound 176, (S)-(3-aminopyrrolidin-1-yl)(5-(4-(1-ethylpiperidin-4-yl)phenyl)-3-methylthiophen-2-yl)methanone]"
< 0.5,< 0.5,"Cc1cc(-c2ccc(C3CCN(C4CCOCC4)CC3)cc2)sc1C(=O)N1CC[C@H](N)C1 [Compound 178, (S)-(3-aminopyrrolidin-1-yl)(3-methyl-5-(4-(1-(tetrahydro-2H-pyran-4-yl)piperidin-4-yl)phenyl)thiophen-2-yl)methanone]"
< 0.5,0.5 to 1,"Cc1cc(-c2ccc(C3CCN(C4CCCCC4)CC3)cc2)sc1C(=O)N1CC[C@H](N)C1 [Compound 179, (S)-(3-aminopyrrolidin-1-yl)(5-(4-(1-cyclohexylpiperidin-4-yl)phenyl)-3-methylthiophen-2-yl)methanone]"
< 0.5,< 0.5,"Cc1cc(-c2ccc(C3CCN(C4CCCC4)CC3)cc2)sc1C(=O)N1CC[C@H](N)C1 [Compound 180, (S)-(3-aminopyrrolidin-1-yl)(5-(4-(1-cyclopentylpiperidin-4-yl)phenyl)-3-methylthiophen-2-yl)methanone]"
< 0.5,0.5 to 1,"Cc1cc(-c2ccc(C3CCN(C4CCC4)CC3)cc2)sc1C(=O)N1CC[C@H](N)C1 [Compound 181, (S)-(3-aminopyrrolidin-1-yl)(5-(4-(1-cyclobutylpiperidin-4-yl)phenyl)-3-methylthiophen-2-yl)methanone]"
< 0.5,< 0.5,"CCCN1CCC(c2ccc(-c3cc(C)c(C(=O)N4CC[C@H](N)C4)s3)cc2)CC1 [Compound 182, (S)-(3-aminopyrrolidin-1-yl)(3-methyl-5-(4-(1-propylpiperidin-4-yl)phenyl)thiophen-2-yl)methanone]"
< 0.5,2 to 6,"Cc1cc(-c2ccc3c(c2)CNCC3)sc1C(=O)N1CC[C@H](N)C1 [Compound 198, (S)-(3-aminopyrrolidin-1-yl)(3-methyl-5-(1,2,3,4-tetrahydroisoquinolin-7-yl)thiophen-2-yl)methanone]"
< 0.5,2 to 6,"Cc1cc(-c2ccc3c(c2)CCNC3)sc1C(=O)N1CC[C@H](N)C1 [Compound 199, (S)-(3-aminopyrrolidin-1-yl)(3-methyl-5-(1,2,3,4-tetrahydroisoquinolin-6-yl)thiophen-2-yl)methanone]"
–,1 to 2,"Cc1cc(-c2ccc(CN(C)C)cc2)sc1C(=O)N1CC[C@H](N)C1 [Compound 217, (S)-(3-aminopyrrolidin-1-yl)(5-(4-((dimethylamino)methyl)phenyl)-3-methylthiophen-2-yl)methanone]"

# Source: patent publication US20260258025A1, “INHIBITORS OF TDP-43 AND TAU AGGREGATION” (Aquinnah Pharmaceuticals, inc., priority 2023, published 2026)
